Results on 25 compounds are retold here after patent US6084120A, “β-Alkoxyacrylates against malaria” (Hoffmann-La Roche Inc., priority 1997, dated 2000).

The subject of data set [1] is human-pathogenic Plasmodium falciparum strain NF54. Description: Growth inhibition of Plasmodium falciparum in vitro, strain NF54 (chloroquine-sensitive), [G-3H]-hypoxanthin incorporation. It counts as cell-based. Conditions: 72 h, read-out: in vitro strain NF 54 IC50 (growth inhibition) (converted). As for the experimental part: (§1) Test method for the determination of the activity against Plasmodium falciparum in vitro
(§2) The preparations are tested on intraerythrocytary stages of Plasmodium falciparum from asynchronous cultures according to the method of Desjardin et al. (Desjardins, R. E. et al: Quantitative assessment of antimalarial activity in vitro by a semiautomated microdilution technique. Antimicrob. Agents Chemother. 16, 710-718, (1979)).
(§3) The culture medium consists of RPMI 1640 with the addition of 25 mM HEPES, 25 mM NaHCO3, 100 μg/ml neomycin and 10% human serum (A^+). Human-A^+ erythrocytes are used as the Plasmodium falciparum host cells. The parasites are maintained at 37° C. in an atmosphere of 3% O2, 4% CO2, 93% N2 and 95% relative humidity.
(§4) In order to determine the activity, the preparations are dissolved in DMSO, pre-diluted in the culture medium to a suitable starting concentration and subsequently titrated-out on to microtitre plates in the 2nd stage over 6-7 steps. After the addition of the parasite culture (0.7% parasitemia in 2.5% erythrocyte suspension) the test plates are incubated under the conditions given above for 72 h. The parasite growth in the different preparation concentrations is determined using [G-^3 H]-hypoxanthin incorporation compared to untreated control cultures on the same test plates. The 50% growth inhibition (IC50) is calculated according to logit regression analysis from the resulting dosage-activity curve.
(§5) The preparations are tested on at least one chloroquine-resistant and one chloroquine-sensitive Plasmodium falciparum strain. Additional sensitive and resistant strains are included for further characterization.

Data set [2] concerns Plasmodium berghei (strain ANKA). Nature of the data set: Activity against Plasmodium berghei in vivo, reduction of parasitemia in infected mice. Conditions: for inhibition in vivo at 100 mg/kg / inhibition in vivo at 10 mg/kg: Plasmodium berghei, 48 h after treatment; for inhibition in vivo at 100 mg/kg / in vivo sc act. % (toxic): single dose 100 mg/kg; for inhibition in vivo at 10 mg/kg: single dose 10 mg/kg. As for the experimental part: Test method for the determination of the activity against Plasmodium berghei in vivo
The preparations are tested on mice infected with malaria pathogens (Plasmodium berghei). Male albino mice (IBM:MORO(SPF), FUELLINSDORF) weighing about 25 g are used as the test animals. They are kept in climatized rooms at 21-22° C. in groups of 5 animals per cage. They receive ad libitum a diet feed with a low PABA content (NAFAG FUTTER" No. 9009 PAB-45, PABA content 45 mg/kg) and drinking water. On the first day of the test (D0) the test animals are infected with Plasmodium berghei (strain ANKA). For this there is used heparinized blood of a donor mouse with about 30% parasitemia, which is diluted with physiological saline such that it contains 10^8 parasitized erythrocytes per ml. 0.2 ml of this suspension is injected intravenously (i.v.) into the mice to be treated and into the control mice. In untreated control animals the parasitemia normally reaches 30-40% on the third day after the infection (D+3) and the test animals die between days +5 and +7.
The substances to be tested are dissolved or suspended in distilled water or in a mixture of 7% Tween 80, 3% alcohol (96%) and water. Usually, 0.25 ml of this solution or suspension is administered once subcutaneously and perorally to groups of 5 test animals. Treatment is effected 24 hours after the infection. 10 control animals are treated in the same manner with solvent or suspension medium per test.
All substances are tested in a first test in a single dosage of 100 or 10 mg/kg. Only those substances which in this test (10 mg/kg) have shown a parasitaemia reduction of more than 90% are used for the titration. Suitable dilutions of the test substance can be used to obtain an accurate titration of the activity.
48 hours after the treatment (D+3) blood smears are prepared from all animals using blood from tail veins and are stained with giemsa. The average erythrocyte infection rate (parasitemiea in %) in the control groups as well as in the groups which have been treated with the test compounds is determined by counting under a microscope. The difference in the average values of the infection rates of control group (100%) and treated groups is calculated and expressed as a percentage reduction (GI%). The ED50 or ED90 is determined mathematically by means of the JMP programme (nonlinear fit). The ED50 (ED90) in mg/kg is that dose which after single administration reduces the average erythrocyte infection rate by 50% (90%) in comparison to the control group.

Data set [3] relates to human-pathogenic Plasmodium falciparum K1. Description: Growth inhibition of Plasmodium falciparum in vitro, strain K1 (chloroquine-resistant), [G-3H]-hypoxanthin incorporation. It counts as cell-based. The conditions noted are these: 72 h. As for the experimental part: as §1, §2, §3, §4, §5
[4] abbreviates: po, perorally, read-out: in vivo po act. % (percentage reduction of the parasitemia).
Where [5] appears, read: sc, subcutaneously, read-out: in vivo sc act. % (percentage reduction of the parasitemia).

In brackets after ≈: the same amount, converted by molar mass. Like-named read-outs stand apart in the source and are kept apart here.

Consider `CO/C=C(/C(=O)OC)c1ccccc1CSc1c(F)c(F)c(F)c(F)c1F` [Example 11], for which the IC50 was 1.17 µg/mL (≈ 2.89 µM) in data set [1] and 4.9 µg/mL (≈ 12.1 µM) in data set [3]. Moreover, the inhibition in vivo at 100 mg/kg in data set [2] (setting [4]) worked out at 80%. Moreover, in data set [2] (subcutaneously), the “in vivo sc act. % (toxic)” value is “tox”.
Consider `CO/C=C(/C(=O)OC)c1ccccc1COc1cnc2cc(Br)cc(C)c2n1` [Example 28], for which the IC50 in data set [1] was 17.7 µg/mL (≈ 39.9 µM); in data set [3], 19.1 µg/mL (≈ 43.1 µM).
Consider `CO/C=C(/C(=O)OC)c1ccccc1CO/N=C(\C)c1cc(C(F)(F)F)cc(C(F)(F)F)c1` [Example 105], for which the figures for the IC50 in data set [1] and in data set [3] were 0.21 µg/mL (≈ 0.442 µM) and 1.01 µg/mL (≈ 2.12 µM), respectively.
As to `CO/N=C(/C(=O)OC)c1ccccc1CO/N=C(\C)c1cccc(C(F)(F)F)c1` [Example 110], the IC50 in data set [1] is 20 µg/mL (≈ 49 µM); in data set [3], 65.8 µg/mL (≈ 161 µM).
`CO/N=C(/C(=O)OC)c1ccccc1CO/N=C(\C)c1cc(C(F)(F)F)cc(C(F)(F)F)c1` [Example 111]: the IC50 is 1.6 µg/mL (≈ 3.36 µM) in data set [1] and 4.3 µg/mL (≈ 9.03 µM) in data set [3].
Turning to `CO/C=C(/C(=O)OC)c1ccccc1/C=C/CSc1ccccc1C(F)(F)F` [Example 120], the IC50 was 1.75 µg/mL (≈ 4.28 µM) in data set [1] and 2.51 µg/mL (≈ 6.15 µM) in data set [3]. Also, the values for the inhibition in vivo at 100 mg/kg in data set [2] (setting [4]) and in data set [2] (setting [5]) were 46% and 91%, respectively.
In the case of `CO/C=C(/C(=O)OC)c1ccccc1/C=C/c1cc(OC)c(OC)cc1[N+](=O)[O-]` [Example 126], the IC50 in data set [1] was 1.2 µg/mL (≈ 3 µM); in data set [3], 3.3 µg/mL (≈ 8.26 µM). Further, the inhibition in vivo at 100 mg/kg turned out to be 79% in data set [2] (setting [4]) and 76% in data set [2] (setting [5]).
For the compound `CO/C=C(/C(=O)OC)c1ccccc1/C=C/c1ccc(OC)c(OC)c1Cl` [Example 136], the IC50 in data set [1] was 1.04 µg/mL (≈ 2.67 µM); in data set [3] it was 2.9 µg/mL (≈ 7.46 µM). Besides, the inhibition in vivo at 100 mg/kg in data set [2] (setting [4]) amounted to 40%. Moreover, in data set [2] (subcutaneously), the “in vivo sc act. % (toxic)” value is reported as “tox”.
Turning to `CO/C=C(/C(=O)OC)c1ccccc1/C=C/C=C/c1ccccc1C(F)(F)F` [Example 185, Methyl (E)-3-methoxy-2-[o-[(all-E)-4-(alpha,alpha,alpha-trifluoro-tolyl)-1,3-butadienyl]-phenl]acrylate], the results for the IC50 in data set [1] and in data set [3] were 0.06 µg/mL (≈ 0.154 µM) and 0.15 µg/mL (≈ 0.386 µM), respectively. Also, in data set [2] (setting [4]), the inhibition in vivo at 10 mg/kg stood at 99%. Further, the inhibition in vivo at 100 mg/kg in data set [2] (setting [5]) came to 100%.
With `COC=C(C(=O)OC)c1ccccc1C=CC=Cc1ccc(C(F)(F)F)cc1C(F)(F)F` [Example 199, (E)- or (Z)-2-[2-[4-(2,4-bis-trifluoromethyl-phenyl)-buta-1,3-dienyl]phenyl]-3-methoxy-acrylic acid methyl ester], the IC50 in data set [1] is 0.06 µg/mL (≈ 0.131 µM); in data set [3], 0.13 µg/mL (≈ 0.285 µM). In addition, the inhibition in vivo at 10 mg/kg in data set [2] (setting [4]) was 100%. Besides, the inhibition in vivo at 100 mg/kg in data set [2] (setting [5]) was 100%.
Regarding `CO/C=C(/C(=O)OC)c1ccccc1/C=C/C=C/c1ccccc1Br` [Example 203, Methyl (E)-2-[o-[(all-E)-4-(o-bromophenyl)-1,3-butadienyl]phenyl]-3-methoxyacrylate], the IC50 in data set [1] is 0.07 µg/mL (≈ 0.175 µM); in data set [3], 0.28 µg/mL (≈ 0.701 µM). In addition, the inhibition in vivo at 10 mg/kg in data set [2] (setting [4]) worked out at 76%. Also, the inhibition in vivo at 100 mg/kg in data set [2] (setting [5]) came out at 90%.
On to `CON=C(C(=O)OC)c1ccccc1/C=C/C=C/c1ccccc1C(F)(F)F` [Example 206, (Z)- or (E)-Methoxyimino-[2-[(1E,2E)-4-(2-trifluoromethylphenyl)-buta-1,3-dienyl]-phenyl]-acetic acid methyl ester], for which the IC50 in data set [1] is 0.4 µg/mL (≈ 1.03 µM); in data set [3], 1.4 µg/mL (≈ 3.6 µM). In addition, the inhibition in vivo at 100 mg/kg was 46% in data set [2] (setting [4]) and 44% in data set [2] (setting [5]).
Regarding `CO/N=C(/C(=O)OC)c1ccccc1C#CC#Cc1ccccc1C(F)(F)F` [Example 207], the IC50 in data set [1] was 10.8 µg/mL (≈ 28 µM); in data set [3], 25.8 µg/mL (≈ 67 µM).
Take `CO/N=C(/C(=O)OC)c1ccccc1C#C/C=C/c1ccccc1C(F)(F)F` [Example 209]: the values for the IC50 in data set [1] and in data set [3] were 3.21 µg/mL (≈ 8.29 µM) and 5.7 µg/mL (≈ 14.7 µM), respectively.
Regarding `CO/C=C(/C(=O)OC)c1ccccc1CCCCc1ccccc1C(F)(F)F` [Example 210], the IC50 is 0.85 µg/mL (≈ 2.17 µM) in data set [1] and 1.35 µg/mL (≈ 3.44 µM) in data set [3]. Also, the inhibition in vivo at 100 mg/kg in data set [2] (setting [4]) turned out to be 82%; in data set [2] (setting [5]), 99%.
`CO/C=C(/C(=O)OC)c1ccccc1CCCCc1ccc(C(F)(F)F)cc1C(F)(F)F` [Example 211]: the IC50 is 0.33 µg/mL (≈ 0.717 µM) in data set [1] and 1.34 µg/mL (≈ 2.91 µM) in data set [3]. Besides, the inhibition in vivo at 10 mg/kg in data set [2] (setting [4]) was 59%. The inhibition in vivo at 100 mg/kg in data set [2] (setting [5]) worked out at 92%.
As for `CO/N=C(/C(=O)OC)c1ccccc1-c1ccc(-c2ccccc2C(F)(F)F)s1` [Example 217], the IC50 in data set [1] was 23.7 µg/mL (≈ 56.5 µM); in data set [3], 60.8 µg/mL (≈ 145 µM).
On the same counts, the results for `CO/C=C(/C(=O)OC)c1csc2cccc(CN(C)[C@@H](C)c3ccccc3)c12` [Example 222] are 22.6 µg/mL (≈ 57.1 µM) and 64.3 µg/mL (≈ 163 µM).
On the same counts, the results for `CO/C=C(/C(=O)OC)c1csc2cccc(COC(=O)Cc3ccc(Cl)cc3Cl)c12` [Example 233] are 29.5 µg/mL (≈ 63.4 µM) and 67.3 µg/mL (≈ 145 µM).
`CO/C=C(/C(=O)OC)c1csc2cccc(COC(=O)/C=C/c3cccc(C(F)(F)F)c3)c12` [Example 236]: the IC50 is 44.2 µg/mL (≈ 92.8 µM) in data set [1] and 175 µg/mL (≈ 367 µM) in data set [3].
As for `CO/C=C(/C(=O)OC)c1csc2cccc(CO/N=C(\C)c3cccc(C(F)(F)F)c3)c12` [Example 238], the IC50 in data set [1] is 17.5 µg/mL (≈ 37.8 µM); in data set [3], 40.9 µg/mL (≈ 88.2 µM).
Consider `CO/C=C(/C(=O)OC)c1csc2cccc(/C=C/c3ccccc3)c12` [Example 241], for which the IC50 is 1.4 µg/mL (≈ 3.99 µM) in data set [1] and 7.4 µg/mL (≈ 21.1 µM) in data set [3].
As to `CO/C=C(/C(=O)OC)c1csc2cccc(/C=C/c3ccsc3)c12` [Example 243], the IC50 in data set [1] was 6.7 µg/mL (≈ 18.8 µM); in data set [3], 22.6 µg/mL (≈ 63.4 µM).
`CO/C=C(/C(=O)OC)c1csc2c(C)cccc12` [Example 250]: the IC50 is 184 µg/mL (≈ 703 µM) in data set [1] and 550 µg/mL (≈ 2100 µM) in data set [3].
Take `CO/C=C(/C(=O)OC)c1ccccc1/C=C/COC1CCCCO1` [Example 251, (E)-3-Methoxy-2-{(E)-2-[(R)- and (S)-3-(tetrahydro-pyran-2-yloxy}-propenyl]-phenyl}-acrylic acid methyl ester]: the results for the IC50 in data set [1] and in data set [3] were 64.9 µg/mL (≈ 195 µM) and 111 µg/mL (≈ 334 µM), respectively. Further, the inhibition in vivo at 100 mg/kg in data set [2] (setting [4]) came out at 40%; in data set [2] (setting [5]), 74%.
